From patent publication US10000450B2, “N,N-substituted 3-aminopyrrolidine compounds useful as monoamines reuptake inhibitors” (OTSUKA PHARMACEUTICAL CO., LTD., priority 2005, dated 2018)
Counter-ions that a name gives are not always drawn.

Tests used:
[1] = biological target: T1, Serotonin (5-HT) uptake into rat brain synaptosome (frontal cortex) (Rattus norvegicus, UniProt P31652); experiment: Inhibitory activity on serotonin (5-HT) uptake into rat brain synaptosome; assay type: biochemical; conditions: tritium-labeled 5-HT 8 nM uptake, 10 min at 37° C., read-out: 50% inhibittory concentration
T1 construct: used as crude synaptosome fractions; from tissue; host or cells: rat (male Wistar) frontal cortex, crude synaptosome fraction
T1 sequence (P31652 whole entry): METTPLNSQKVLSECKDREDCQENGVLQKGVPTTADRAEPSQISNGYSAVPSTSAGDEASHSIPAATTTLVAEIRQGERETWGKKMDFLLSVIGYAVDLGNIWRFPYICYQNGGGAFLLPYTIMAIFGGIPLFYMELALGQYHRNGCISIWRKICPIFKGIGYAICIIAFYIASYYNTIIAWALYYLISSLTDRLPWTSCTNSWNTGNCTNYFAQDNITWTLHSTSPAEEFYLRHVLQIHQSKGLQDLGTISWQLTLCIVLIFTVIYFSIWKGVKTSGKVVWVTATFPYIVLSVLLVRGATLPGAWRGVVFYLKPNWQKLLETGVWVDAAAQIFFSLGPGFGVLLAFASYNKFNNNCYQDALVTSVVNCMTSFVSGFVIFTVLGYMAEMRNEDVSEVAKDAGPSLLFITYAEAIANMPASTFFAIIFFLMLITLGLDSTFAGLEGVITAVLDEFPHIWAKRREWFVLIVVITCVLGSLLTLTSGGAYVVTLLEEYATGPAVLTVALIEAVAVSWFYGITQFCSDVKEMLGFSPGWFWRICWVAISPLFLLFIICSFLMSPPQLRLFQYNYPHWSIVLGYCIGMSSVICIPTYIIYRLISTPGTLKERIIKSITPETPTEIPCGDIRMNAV
Method: Pharmacological Test 1 Evaluation of Inhibitory Activity of Test Compound on Serotonin (5-HT) Uptake into Rat Brain Synaptosome
(§1) Male Wistar rats were decapitated and the brains were removed and the frontal cortices were dissected. The separated frontal cortices were homogenized in 20 volumes as weight of 0.32 M sucrose solution by a Potter-type homogenizer. The homogenate was centrifuged at 1000 g at 4° C. for 10 minutes, and the supernatant was then centrifuged at 20000 g at 4° C. for 20 minutes. The pellet was resuspended in incubation buffer (20 mM HEPES buffer (pH 7.4)) containing 10 mM glucose, 145 mM sodium chloride, 4.5 mM potassium chloride, 1.2 mM magnesium chloride, and 1.5 mM calcium chloride) and used as crude synaptosome fractions.
(§2) The uptake reaction mixture was suspended in a final volume of 200 μl containing pargyline (final concentration of 10 μM) and sodium ascorbate (final concentration of 0.2 mg/ml) in each well of 96-well-round-bottom-plate.
(§3) Solvent, unlabeled 5-HT, and serial diluted test compounds were added in each well, and synaptosome fraction of 1/10 volume of the final volume were added. After a 10 min preincubation at 37° C., the uptake was initiated by the addition of tritium-labeled 5-HT solution (final concentration of 8 nM) at 37° C. The uptake was stopped after 10 minutes by filtration under vacuum through a 96-well glass fiber filter plate. After washing the filter with cold physiological saline and drying up, Microscint-O (Perkin-Elmer) was added, and remained radioactivity on the filter was measured.
(§4) The total uptake activity with only solvent was determined as 100%, and the nonspecific uptake activity with unlabeled 5-HT (final concentration of 10 μM) was determined as 0%. The 50% inhibitory concentrations were calculated based on the concentrations of the test compounds and their inhibitory activities.

[2] = biological target: T2, Dopamine (DA) uptake into rat brain synaptosome (striatum) (Rattus norvegicus, UniProt P23977); experiment: Inhibitory activity on dopamine (DA) uptake into rat brain synaptosome; assay type: biochemical; conditions: tritium labeled DA 2 nM uptake, 10 min at 37° C., read-out: 50% inhibitory concentration
T2 construct: used as crude synaptosome fraction; from tissue; host or cells: rat (male Wistar) striatum, crude synaptosome fraction
T2 sequence (P23977 whole entry): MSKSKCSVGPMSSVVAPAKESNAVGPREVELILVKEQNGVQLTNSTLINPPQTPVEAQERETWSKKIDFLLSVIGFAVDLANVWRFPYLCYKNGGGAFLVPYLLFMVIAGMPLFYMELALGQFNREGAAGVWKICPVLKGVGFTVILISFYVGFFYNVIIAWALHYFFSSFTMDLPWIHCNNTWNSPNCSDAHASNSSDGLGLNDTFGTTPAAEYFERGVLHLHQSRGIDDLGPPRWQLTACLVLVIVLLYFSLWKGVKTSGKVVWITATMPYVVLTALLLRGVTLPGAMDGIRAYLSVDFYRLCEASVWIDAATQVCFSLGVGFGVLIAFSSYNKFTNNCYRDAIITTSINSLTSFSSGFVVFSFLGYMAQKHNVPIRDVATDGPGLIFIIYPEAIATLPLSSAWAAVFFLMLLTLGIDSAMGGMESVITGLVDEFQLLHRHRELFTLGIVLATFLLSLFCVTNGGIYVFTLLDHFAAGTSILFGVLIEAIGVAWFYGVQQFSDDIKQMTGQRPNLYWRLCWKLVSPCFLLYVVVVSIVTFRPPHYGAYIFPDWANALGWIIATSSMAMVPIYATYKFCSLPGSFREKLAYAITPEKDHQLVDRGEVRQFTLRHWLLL
Method: Pharmacological Test 3 Evaluation of Inhibitory Activity of Test Compound on Dopamine (DA) into Rat Brain Synaptosome
as §1, with “striata” for “frontal cortices”, “fraction.” for “fractions.”
as §2
as §3, with “DA,” for “5-HT,”, “10-min” for “a 10 min”, “tritium labeled DA” for “tritium-labeled 5-HT”, “2” for “8”, “Microscint-0” for “Microscint-O”, “added” for “added,”
as §4, with “The” for “The total”, “DA” for “5-HT”

[3] = biological target: T3, Norepinephrine (NE) uptake into rat brain synaptosome (hippocampus) (Rattus norvegicus, UniProt Q63380); experiment: Inhibitory activity on norepinephrine (NE) uptake into rat brain synaptosome; assay type: biochemical; conditions: tritium-labeled NE 12 nM uptake, 10 min at 37° C., read-out: 50% inhibitory concentration
T3 construct: used as crude synaptosome fraction; from tissue; host or cells: rat (male Wistar) hippocampus, crude synaptosome fraction
T3 sequence (Q63380 1-617): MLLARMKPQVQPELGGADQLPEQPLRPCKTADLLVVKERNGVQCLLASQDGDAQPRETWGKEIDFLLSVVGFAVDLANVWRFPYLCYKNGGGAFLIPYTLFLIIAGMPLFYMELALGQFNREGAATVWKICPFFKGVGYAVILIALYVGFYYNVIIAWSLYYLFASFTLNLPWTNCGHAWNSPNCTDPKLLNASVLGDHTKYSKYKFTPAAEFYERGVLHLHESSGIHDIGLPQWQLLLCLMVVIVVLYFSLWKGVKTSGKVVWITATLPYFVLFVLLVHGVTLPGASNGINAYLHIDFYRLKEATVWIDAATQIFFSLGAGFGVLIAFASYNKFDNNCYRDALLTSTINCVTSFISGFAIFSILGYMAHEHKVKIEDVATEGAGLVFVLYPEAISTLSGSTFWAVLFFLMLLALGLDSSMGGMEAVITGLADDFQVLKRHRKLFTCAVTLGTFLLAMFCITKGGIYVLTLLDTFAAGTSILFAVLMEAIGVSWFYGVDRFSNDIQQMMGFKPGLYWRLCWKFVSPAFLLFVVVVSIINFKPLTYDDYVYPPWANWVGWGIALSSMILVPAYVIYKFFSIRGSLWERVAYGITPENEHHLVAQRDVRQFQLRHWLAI
Method: Pharmacological Test 2 Evaluation of Inhibitory Activity of Test Compound on Norepinephrine (NE) Uptake into Rat Brain Synaptosome
as §1, with “hippocampi” for “frontal cortices”, “fraction.” for “fractions.”
The uptake reaction mixture was suspended in final volume of 200 μl containing pargyline (final concentration of 10 μM) and sodium ascorbate (final concentration of 0.2 mg/ml) in each well of 96-well-round-bottom-plate.
Solvent, unlabeled NE, and serial diluted test compounds were added to each well, and synaptosome fraction of 1/10 volume of the final volume were added. After 10 minutes preincubation at 37° C., the uptake was initiated by the addition of tritium-labeled NE solution (final concentration of 12 nM) at 37° C. The uptake was stopped after 10 minutes by filtration under vacuum through a 96-well glass fiber filter plate. After washing the filter with cold physiological saline and drying up, Microscint-0 (Perkin-Elmer) was added, and remained radioactivity on the filter was measured.
as §4, with “NE” for “5-HT”

SMILES | melting point | IC50 [1] | IC50 [2] | IC50 [3]
Fc1ccc(N(c2ccc(Cl)nc2)[C@H]2CCNC2)cc1Cl (as salt: fumarate) [Example 244] | 136 to 137 °C | – | – | –
Fc1ccc(N(c2ccc(N3CCNCC3)cn2)[C@H]2CCNC2)cc1Cl (as salt: hydrochloride) [Example 200] | 212 to 215 °C | – | – | –
Fc1ccc(N(c2nccs2)[C@H]2CCNC2)cc1Cl (as salt: fumarate) [Example 131] | 128 to 129.9 °C | – | – | –
Fc1ccc(N(c2ccccn2)[C@H]2CCNC2)cc1Cl (as salt: fumarate) [Example 154] | 152.4 to 154.4 °C | – | – | –
Clc1ccc(N(c2cccnc2)[C@H]2CCNC2)cc1Cl (as salt: hydrochloride) [Example 242] | 108 to 110 °C | – | – | –
CSc1ccc(N(c2ccccc2)[C@H]2CCNC2)cc1 (as salt: fumarate) [Example 19] | 152.9 to 155.5 °C | – | – | –
N#Cc1ccc(N(c2ccc(F)c(Cl)c2)[C@H]2CCNC2)cc1 (as salt: fumarate) [Example 73] | 174 to 175 °C | – | – | –
Fc1ccc(N(c2ccc(-c3cnco3)cc2)[C@H]2CCNC2)cc1Cl [Example 90] | 115 to 117 °C | 1.2 nM | 4.8 nM | 0.7 nM
c1ccc(N(c2ccc3sccc3n2)[C@H]2CCNC2)cc1 (as salt: hydrochloride) [Example 934] | 241.5 to 243.5 °C | – | – | –
Fc1ccc(N(c2ccccc2)[C@H]2CCNC2)cc1 (as salt: fumarate) [Example 20] | 143 to 145 °C | – | – | –
Fc1ccc(N(c2ccc3cnsc3c2)[C@H]2CCNC2)cc1Cl (as salt: hydrochloride) [Example 930] | 150 to 156 °C | – | – | –
Clc1ccc(N(c2ccncc2)[C@H]2CCNC2)cc1Cl (as salt: salt) [Example 273] | 229 to 231 °C | – | – | –
Fc1cccc(N(c2ccc(C(F)(F)F)cc2)[C@H]2CCNC2)c1.O=C(O)/C=C/C(=O)O.O=C(O)/C=C/C(=O)O | 144 to 146.2 °C | – | – | –
Clc1ccc(N(c2cnccn2)[C@H]2CCNC2)cc1Cl (as salt: hydrochloride) [Example 963] | 120 to 124 °C | – | – | –
Fc1ccc(N(c2ccc3ccsc3c2)[C@H]2CCNC2)cc1 (as salt: fumarate) [Example 114] | 131.6 to 133.3 °C | – | – | –
CS(=O)(=O)O.CS(=O)(=O)O.Fc1ccc(N(c2cccnc2)[C@H]2CCNC2)cc1Cl [Example 7, (3-chloro-4-fluorophenyl) pyridin-3-yl-(S)-pyrrolidin-3-ylamine dimethanesulfonate] | 194 to 195 °C | 3 nM | 45 nM | 0.4 nM
Cc1ccc(N(c2ccccc2)[C@H]2CCNC2)cc1 (as salt: fumarate) [Example 22] | 141.7 to 143.8 °C | – | – | –
CCN1CCN(c2ccc(N(c3ccc(F)c(Cl)c3)[C@H]3CCNC3)nc2)CC1 (as salt: hydrochloride) [Example 201] | 208 to 211 °C | – | – | –
c1ccc(N(c2ccc3sccc3c2)[C@H]2CCNC2)cc1 (as salt: hydrochloride) [Example 116] | 158 to 160 °C | – | – | –
CC(C)(O)CN(c1ccc(F)c(Cl)c1)[C@H]1CCNC1 [Example 967] | – | 0.9 nM | 25.4 nM | 0.1 nM
Fc1ccc(N(c2ccc3ncccc3c2)[C@H]2CCNC2)cc1Cl [Example 913] | – | 0.8 nM | 6.5 nM | 0.8 nM
Fc1ccc(N(c2ccsc2)[C@H]2CCNC2)cc1Cl (as salt: fumarate) [Example 278] | 135 to 136 °C | – | – | –
Fc1ccc(N(c2ccc(Cl)c(Cl)c2)[C@H]2CCNC2)nc1 (as salt: hydrochloride) [Example 961] | 96 to 98 °C | – | – | –
Clc1ccc(N(c2ccccn2)[C@H]2CCNC2)cc1Cl (as salt: hydrochloride) [Example 188] | 135 to 138 °C | – | – | –
